GI50 and TGI data for nine molecules are collected here from PubChem BioAssay (NCI).

“And” between values parts separate entries of the source, which are not always exact repeats. Equal entries are not always repeated.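 Growth conditions: 96-well plates. Treatment: test compound, 48 hours, 5 concentrations. Analysis: linear interpolation between bracketing concentrations; unreached endpoints set to highest concentration. GI50 marks 50% less growth. The concentration for full growth arrest is given as TGI.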

Among the test systems are MDA-MB-231 breast; RXF 393 renal; HCT-15 colon; LOX IMVI melanoma; EKVX NSCLC; HOP-92 NSCLC; K-562 leukemia; SF-268 CNS; RPMI-8226 leukemia; COLO 205 colon.
What all share (assay): NCI anticancer screen, dose series, 48 h

For `[Cu].c1ccc2c(c1)C1=NC2=NC2=NC(=NC3=NC(=NC4=NC(=N1)c1ccccc14)c1ccccc13)c1ccccc12`, the GI50 in the assay with MDA-MB-231 breast, in the assay with RXF 393 renal, in the assay with HCT-15 colon, with LOX IMVI melanoma, in the assay on EKVX NSCLC and in the assay on HOP-92 NSCLC was greater than 100 µM in each case. The GI50 in the assay on K-562 leukemia, in the assay with SF-268 CNS and in the assay with RPMI-8226 leukemia was greater than 100 µM throughout. Besides, the TGI with MDA-MB-231 breast, with RXF 393 renal, in the assay on HCT-15 colon, in the assay on LOX IMVI melanoma, with EKVX NSCLC and with HOP-92 NSCLC was greater than 100 µM throughout. For the same molecule, the TGI in the assay on K-562 leukemia, in the assay with SF-268 CNS and in the assay with RPMI-8226 leukemia was greater than 100 µM throughout.
Take `O=C(O)CN(CCN(CC(=O)O)CC(=O)O)CCN(CC(=O)O)CC(=O)O`: the GI50 in the assay on MDA-MB-231 breast is 10.5 µM; in the assay on RXF 393 renal, 2.07 µM; in the assay on COLO 205 colon, 4.55 µM; in the assay with HCT-15 colon, 3.67 µM; in the assay on LOX IMVI melanoma, 3.22 µM; with EKVX NSCLC, 3.26 µM. Besides, the results for the GI50 with HOP-92 NSCLC and in the assay on SF-268 CNS were 11.5 µM and 3.04 µM, respectively. Also, the TGI in the assay on MDA-MB-231 breast turned out to be 87.6 µM; in the assay with RXF 393 renal, 4.85 µM; with COLO 205 colon it was 16.5 µM; with HCT-15 colon, 20.9 µM; with LOX IMVI melanoma it was 11.6 µM; in the assay with EKVX NSCLC, 9.91 µM. Besides, the results for the TGI with HOP-92 NSCLC and with SF-268 CNS were 79 µM and 10.8 µM, respectively.
In the case of `O=c1cc(-c2cccc(Cl)c2)[nH]c2cc3c(cc12)OCO3`, the TGI in the assay on MDA-MB-231 breast was 11.5 µM; in the assay on RXF 393 renal, 75 µM and 9.8 µM; in the assay on COLO 205 colon, 10.4 µM; in the assay on HCT-15 colon, 2.81 µM; in the assay on LOX IMVI melanoma, 38.8 µM and 40.2 µM; in the assay on HOP-92 NSCLC it was 21.8 µM. The molecule further displayed a TGI in the assay with RPMI-8226 leukemia greater than 100 µM. For the same molecule, the GI50 in the assay on RXF 393 renal was 0.164 µM and 0.626 µM; in the assay on LOX IMVI melanoma it was 0.434 µM.
On to `C[C@]12CC[C@H]3[C@@H](CCC4=CC(=O)CC[C@@]43C)[C@]1(O)CC[C@]2(O)C(=O)CO`, for which the TGI with MDA-MB-231 breast, with RXF 393 renal, with COLO 205 colon, with HCT-15 colon, in the assay with LOX IMVI melanoma and in the assay on EKVX NSCLC was greater than 100 µM each time. The TGI in the assay with K-562 leukemia, with SF-268 CNS and in the assay on RPMI-8226 leukemia was greater than 100 µM in each case.
Consider `Clc1ccc2c(NC3CCC(NC4CCCCC4)CC3)ccnc2c1` (stereo not drawn), for which the GI50 is 5.94 µM in the assay with MDA-MB-231 breast; 3.61 µM in the assay on RXF 393 renal; 1.65 µM in the assay with COLO 205 colon; 3.52 µM in the assay with HCT-15 colon; 1.75 µM in the assay on LOX IMVI melanoma; 4.55 µM in the assay on EKVX NSCLC. Besides, the GI50 was 1.2 µM in the assay with HOP-92 NSCLC, 10.5 µM in the assay on SF-268 CNS and 2.26 µM with RPMI-8226 leukemia. Further, the TGI turned out to be 23.8 µM with MDA-MB-231 breast; 16.6 µM in the assay on RXF 393 renal; 3.2 µM in the assay with COLO 205 colon; 12.8 µM in the assay on HCT-15 colon; 4.29 µM in the assay on LOX IMVI melanoma; 43 µM with EKVX NSCLC. The TGI in the assay with HOP-92 NSCLC stood at 9.74 µM; with SF-268 CNS, 25.6 µM; with RPMI-8226 leukemia, 14.5 µM.
As to `COc1cc(OC)c(OC)cc1/C=C/c1ccccn1`, the TGI in the assay on MDA-MB-231 breast, in the assay on RXF 393 renal, in the assay on COLO 205 colon, in the assay with HCT-15 colon, with LOX IMVI melanoma and in the assay with EKVX NSCLC was greater than 10 µM throughout. For the same molecule, the TGI with HOP-92 NSCLC, in the assay on K-562 leukemia and in the assay on SF-268 CNS was greater than 10 µM each time.
For the molecule `CCCCCOC(=O)c1c(C)[nH]c(/C=C2\N=C(c3ccc[nH]3)C=C2OC)c1C`, the GI50 is less than 0.0162 µM in the assay on MDA-MB-231 breast; 0.0664 µM in the assay with RXF 393 renal; 0.0331 µM with COLO 205 colon; 0.0264 µM in the assay with HCT-15 colon; 0.0115 µM with LOX IMVI melanoma; 0.0214 µM in the assay with HOP-92 NSCLC. The GI50 is 0.0421 µM with K-562 leukemia, 0.0302 µM in the assay on SF-268 CNS and 0.028 µM with RPMI-8226 leukemia. Besides, the TGI was 0.216 µM in the assay on MDA-MB-231 breast; 0.9 µM in the assay on RXF 393 renal; 1.04 µM in the assay with COLO 205 colon; 1.4 µM in the assay with HCT-15 colon; 0.025 µM in the assay with LOX IMVI melanoma; 0.116 µM with HOP-92 NSCLC. Also, the TGI was determined as 1.25 µM in the assay with K-562 leukemia, 1.87 µM in the assay on SF-268 CNS and 0.24 µM in the assay with RPMI-8226 leukemia.
`Cc1cc2c(cc1Cl)SC(=Nc1ccc(Cl)cc1)N(S(=O)(=O)c1ccc(Br)s1)S2(=O)=O`: the GI50 with MDA-MB-231 breast is 12.9 µM; in the assay with COLO 205 colon, 17.8 µM; in the assay on HCT-15 colon it was 11.9 µM; in the assay with LOX IMVI melanoma, 9.26 µM; in the assay on EKVX NSCLC, 16.8 µM; with HOP-92 NSCLC, 12.1 µM. In addition, the GI50 with K-562 leukemia is 16.4 µM; with SF-268 CNS it was 32.2 µM; in the assay on RPMI-8226 leukemia it was 3.7 µM. For the same molecule, the TGI is 38.9 µM with MDA-MB-231 breast; greater than 100 µM in the assay on COLO 205 colon; 29.7 µM with HCT-15 colon; 24.3 µM in the assay on LOX IMVI melanoma; 36.3 µM in the assay on EKVX NSCLC; 46.1 µM in the assay with HOP-92 NSCLC. In addition, the TGI is 77.5 µM in the assay on K-562 leukemia, greater than 100 µM in the assay with SF-268 CNS and 21.5 µM with RPMI-8226 leukemia.
Consider `CCN(Cc1ccccc1)c1ccc(/C=C2\COc3ccccc3C2=O)cc1`, for which the GI50 with MDA-MB-231 breast is 896 µM; in the assay with RXF 393 renal, 758 µM; in the assay on COLO 205 colon, greater than 1000 µM; with HCT-15 colon, 106 µM; in the assay with LOX IMVI melanoma, 243 µM; in the assay with EKVX NSCLC it was 538 µM. For the same molecule, the figures for the GI50 in the assay on HOP-92 NSCLC, in the assay with SF-268 CNS and in the assay with RPMI-8226 leukemia were 553 µM, greater than 1000 µM and 146 µM, respectively. The TGI in the assay on MDA-MB-231 breast, in the assay on RXF 393 renal, in the assay on COLO 205 colon, with HCT-15 colon, in the assay on LOX IMVI melanoma and in the assay with EKVX NSCLC was greater than 1000 µM in each case. For the same molecule, the TGI in the assay with HOP-92 NSCLC, in the assay with SF-268 CNS and in the assay with RPMI-8226 leukemia was greater than 1000 µM throughout.
